# “And” between values parts separate entries of the source, which are not always exact repeats. Equal entries are not always repeated.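 48-hour exposure; five concentrations; linearly interpolated endpoints. GI50: concentration for 50% inhibition of growth. Definition used: TGI = concentration required for complete inhibition of growth.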
# Key:
# Experiment in all cases: inhibition of tumour cell growth, NCI panel, 48 h
# [1] = system: A549 NSCLC
# [2] = system: ACHN renal
# [3] = system: HCC-2998 colon
# [4] = system: HT29 colon
# [5] = system: MDA-MB-231 breast
# [6] = system: NCI-H226 lung
# [7] = system: NCI-H522 lung
# [8] = system: RXF 393 renal
# [9] = system: TK-10 renal
# [10] = system: U251 CNS
Structure (SMILES),TGI [1],TGI [2],TGI [3],TGI [4],TGI [5],TGI [6],TGI [7],TGI [8],TGI [9],TGI [10],GI50 [1],GI50 [2],GI50 [3],GI50 [4],GI50 [5],GI50 [6],GI50 [7],GI50 [8],GI50 [9],GI50 [10]
CC1=C(/C=C/C(C)=C/C=C/C(C)=C/C(=O)O)C(C)(C)CCC1,> 79.4 µM,75.9 µM,66.8 µM,68.3 µM,99.6 µM,72.6 µM,> 83.7 µM,> 81.5 µM,> 100 µM,70.7 µM,,,,,,,,,,
COC(=O)c1cc2c3ccccc3[nH]c2c2sccc12,> 100 µM,> 100 µM,43.5 µM,18.7 µM,61.3 µM,> 100 µM,> 100 µM,80.4 µM,52.6 µM,34 µM,25.5 µM,13.6 µM,19.4 µM,6.96 µM,5.06 µM,68 µM,17.2 µM,23.6 µM,13.8 µM,14.3 µM
CCc1ccc(C(=Nc2ccc(N(C)C(=O)CN3CCN(C)CC3)cc2)c2c(O)[nH]c3ccc(C(=O)OC)cc23)cc1,1.64 µM,1.43 µM,1.95 µM,3.17 µM,2.09 µM,2.71 µM,2.38 µM,1.2 µM,2.11 µM,2.02 µM,0.319 µM,0.332 µM,0.587 µM,0.247 µM,0.585 µM,0.977 µM,0.586 µM,0.22 µM,0.233 µM,0.59 µM
O=C(N/N=C/c1ccc(O)cc1O)c1cccc(Nc2ccnc(C(F)(F)F)c2)c1,> 72 µM,29.6 µM,18.1 µM,> 100 µM,51.8 µM,9.44 µM,22.6 µM,17.4 µM,37.3 µM,49 µM,6.44 µM,1.25 µM,0.778 µM,5.14 µM,1.08 µM,1.21 µM,1.27 µM,2.48 µM,2.98 µM,0.617 µM
Cc1cc(-c2ccccn2)cc(C)c1/C=C/c1cncc(-c2nn[nH]n2)c1,> 25 µM,> 25 µM,> 25 µM,> 25 µM,> 25 µM,> 25 µM,> 25 µM,> 25 µM,> 25 µM,> 25 µM,> 25 µM,> 25 µM,> 25 µM,> 25 µM,> 25 µM,> 25 µM,> 25 µM,> 25 µM,> 25 µM,> 25 µM
CCCCCCCCCNC(=O)/C=C/c1ccc(O)c(O)c1,> 100 µM,21.6 µM,31.4 µM,> 100 µM,34.7 µM,25.5 µM,9.91 µM,50.9 µM,39.7 µM,23.3 µM,33.3 µM,6.96 µM,16 µM,17.9 µM,13.2 µM,10.4 µM,0.833 µM,19.2 µM,11.1 µM,10.2 µM
CCOC(=O)C#Cc1c(C(=O)OCC)nnn1Cc1ccc([N+](=O)[O-])cc1,34.8 µM,3.45 µM,32.2 µM,,9.14 µM,3.33 µM,3.8 µM,3.52 µM,3.33 µM,20.9 µM,20.6 µM,1.89 µM,18.3 µM,,3.25 µM,1.72 µM,1.92 µM,1.89 µM,1.87 µM,8.89 µM
O=C(/C=C/C12c3ccccc3C(c3ccccc31)C1C(=O)NC(=O)C12)c1ccc(F)cc1 (stereo unspecified),7.01 µM,6.18 µM,3.1 µM,5.21 µM,9.58 µM,9.51 µM,4.98 µM,3.3 µM,6.43 µM,3.07 µM,2.39 µM,2.43 µM,1.62 µM,2.34 µM,3.05 µM,2.74 µM,2.14 µM,1.77 µM,2.69 µM,1.63 µM
[N-]=[N+]=NCCCn1c2c(c3ccc([N+](=O)[O-])cc3c1=O)C(=O)c1cc(F)ccc1-2,> 100 µM,1.55 µM,> 100 µM,> 35.2 µM,> 100 µM,> 46.8 µM,12.2 µM,54.6 µM,> 100 µM,8.89 µM,5.14 µM,0.269 µM,14.5 µM,1.24 µM,30.3 µM,2.26 µM,0.853 µM,4.32 µM,16.7 µM,0.539 µM
CCOC(=O)c1cc(-c2ccccc2)[nH]c1N/N=C/c1ccc(Cl)cc1,> 100 µM,> 100 µM,> 100 µM,> 100 µM,> 100 µM,> 100 µM,> 100 µM,> 100 µM,> 100 µM,> 100 µM,81.5 µM,> 100 µM,54.7 µM,37.3 µM,> 100 µM,> 100 µM,89.4 µM,> 100 µM,> 100 µM,> 100 µM
CC(=O)O[C@H]1[C@@H]2OC(=O)C(CSc3ccccc3)[C@@H]2C[C@H]2O[C@]2(C)CC/C=C(\C)CCC[C@@H]1C (stereo partly specified),21.4 µM,3.82 µM,16.3 µM,14.9 µM,19.5 µM,18 µM,3.68 µM,3.79 µM,3.74 µM,16.5 µM,4.34 µM,1.8 µM,4.7 µM,3.51 µM,4.25 µM,4.69 µM,1.74 µM,1.88 µM,1.65 µM,3.97 µM
NS(=O)(=O)CC1CC[CH-]CC1.[Cl-].[Cl-].[Cl-].[Cl-].[Cl-].[Sb+5].c1ccncc1,> 100 µM,> 100 µM,> 100 µM,> 100 µM,> 100 µM,> 100 µM,> 100 µM,> 100 µM,> 100 µM,> 100 µM,> 100 µM,> 100 µM,> 100 µM,> 100 µM,> 100 µM,> 100 µM,> 100 µM,> 100 µM,> 100 µM,> 100 µM
CCN(CC)C(=S)SCN1C(=O)c2ccccc2S1(=O)=O,> 100 µM,> 100 µM,> 78 µM,> 74.9 µM,> 100 µM,> 100 µM,> 45 µM,> 80.1 µM,> 100 µM,> 100 µM,41.2 µM,64.6 µM,40.8 µM,25.1 µM,50.9 µM,65.5 µM,0.391 µM,> 51.3 µM,> 52.4 µM,52.5 µM
COc1cc(C2=N/C(=C/c3cccs3)C(=O)O2)cc(OC)c1OC,> 100 µM,> 100 µM,> 100 µM,> 100 µM,> 100 µM,> 100 µM,> 100 µM,> 100 µM,> 100 µM,> 100 µM,,,,,,,,,,
Cc1cc2c(C(N)=O)c(N)n(-c3c(C)ccc(O)c3C)c2nc1C,47.4 µM,10.5 µM,11.7 µM,> 100 µM,13.9 µM,4.89 µM,5.09 µM,0.855 µM,23.9 µM,34.1 µM,4.53 µM,1.84 µM,3.21 µM,0.585 µM,2.12 µM,0.569 µM,1.48 µM,0.12 µM,4.11 µM,4.23 µM
Cc1ccc(C(=O)/C(=C\c2ccc([N+](=O)[O-])cc2)S(=O)Cc2ccc(Cl)cc2)cc1 (stereo unspecified),11 µM,4.98 µM,3.36 µM,4.3 µM,3.88 µM,11.5 µM,3.18 µM,3.1 µM,3.89 µM,3 µM,3.05 µM,2.09 µM,1.82 µM,1.88 µM,1.86 µM,2.81 µM,1.72 µM,1.65 µM,1.86 µM,1.56 µM
O=C(O)c1c(=O)cccc2ssc12,3.77 µM,3.21 µM,3.36 µM,3.64 µM,4.67 µM,3.6 µM,3.24 µM,3.39 µM,3.23 µM,3.16 µM,1.86 µM,1.72 µM,1.8 µM,1.89 µM,2.29 µM,1.87 µM,1.61 µM,1.91 µM,1.75 µM,1.74 µM
CN(Cc1cc(Br)cc(Br)c1O)Cc1c(O)ccc2ccccc12,40.9 µM,41.7 µM,37.9 µM,37.8 µM,35.6 µM,40.5 µM,74.5 µM,38.8 µM,36.4 µM,41 µM,,,,,,,,,,
CC(=[N-])N1CCC[C@@H](Nc2c3ccccc3nc3ccccc23)C1.[Cl][Pt].[NH-]CCC[NH-],> 100 µM,2.47 µM,9.17 µM,> 100 µM,89.1 µM,0.2 µM,0.165 µM,2.96 µM,> 46.1 µM,> 100 µM,0.0325 µM,0.159 µM,1.7 µM,0.44 µM,2.1 µM,0.0328 µM,0.0258 µM,1.25 µM,2.76 µM,1.58 µM
N#Cc1cc(S(=O)(=O)Nc2nnc(-c3ccccc3)c(-c3ccccc3)n2)c(SCc2ccccc2)cc1Cl,40.7 µM,42.6 µM,> 100 µM,,83.8 µM,70.7 µM,> 100 µM,22.7 µM,46.2 µM,33.1 µM,22.2 µM,21.5 µM,> 100 µM,,23.3 µM,27.6 µM,44.5 µM,6.31 µM,22.9 µM,17.8 µM
O=C1c2ccccc2-c2c1c1c(O)cccc1n2Cc1ccccn1,> 100 µM,> 100 µM,> 100 µM,> 100 µM,> 100 µM,65.3 µM,> 100 µM,> 100 µM,93.2 µM,> 100 µM,45.3 µM,25.8 µM,70.9 µM,88.6 µM,28.5 µM,12.8 µM,> 100 µM,45.7 µM,28.9 µM,94.4 µM
CCn1c(-c2nonc2N)nc2c(C#CC(C)(C)O)ncc(OC[C@H]3CCCNC3)c21,62.3 µM,> 100 µM,> 100 µM,51.5 µM,55.6 µM,52.2 µM,33.2 µM,11.6 µM,42.6 µM,21.9 µM,15.6 µM,25.7 µM,21.2 µM,17.5 µM,17.8 µM,21.1 µM,12.2 µM,0.228 µM,2.03 µM,0.533 µM
COc1cc2nccc(Oc3ccc(NC(=O)Nc4cc(C)on4)c(Cl)c3)c2cc1OC,19.1 µM and > 10 µM,22.3 µM and > 10 µM,> 100 µM,15.5 µM and > 10 µM,8.73 µM and > 10 µM,35.2 µM and > 10 µM,32.9 µM and > 10 µM,6.2 µM and 8.18 µM,13.2 µM and > 10 µM,> 100 µM,3.15 µM and 4.31 µM,3.28 µM and 3.72 µM,9 µM and > 10 µM,3.01 µM and 2.78 µM,2.18 µM and 2.42 µM,0.795 µM and 0.438 µM,3.47 µM and 3.14 µM,1.96 µM and 1.79 µM,3.42 µM and 3.9 µM,4.68 µM and 8.17 µM
Oc1c(Cl)cc(Cl)cc1C(c1cc(Cl)cc(Cl)c1O)C(Cl)(Cl)Cl,14.4 µM,12 µM,5.08 µM,11.4 µM,4.81 µM,5.89 µM,26.7 µM,6.66 µM,16 µM,14.4 µM,3.77 µM,2.82 µM,1.91 µM,3.03 µM,1.59 µM,2.18 µM,0.964 µM,2.38 µM,4.26 µM,2.52 µM
O=C1C=CC(=O)N1c1cccc(N2C(=O)C=CC2=O)c1,45.4 µM,3.21 µM,26.4 µM,4.94 µM,4.53 µM,7.63 µM,3.04 µM,3.1 µM,3.13 µM,25.2 µM,19.3 µM,1.77 µM,12.9 µM,2.3 µM,1.97 µM,2.91 µM,1.62 µM,1.7 µM,1.71 µM,11.4 µM

# Reference: PubChem BioAssay (NCI)
